Assay: Solubility of phthalonitrile monomers in common organic solvents
Format: physicochemical
Design: key: “+” represents “soluble”

Solubility (DMF) | Solubility (DMSO) | Solubility (NMP) | Solubility (THF) | Solubility (acetone) | SMILES
+ | + | + | + | + | N#Cc1ccc(Oc2cccc(OB(Oc3cccc(Oc4ccc(C#N)c(C#N)c4)c3)c3ccccc3)c2)cc1C#N [Example 4]
+ | + | + | + | + | N#Cc1ccc(Oc2cccc(OB(Oc3cccc(Oc4ccc(C#N)c(C#N)c4)c3)Oc3cccc(Oc4ccc(C#N)c(C#N)c4)c3)c2)cc1C#N [Example 3]

From patent US12195596B2, “Hyperbranched boric acid modified phthalonitrile monomer as well as preparation method and use thereof” (priority 2021, dated 2025)
